Values after ≈ are worked out from the molar mass of the structure shown.
What was measured:
C. perfringens = conditions: reported value, ref not given; cited from earlier work
[1] = system: Clostridium botulinum CECT551; conditions: Reinforced Clostridium Medium, Coy Anaerobic Chamber, 18 h, 37 °C, three biological replicates
[2] = system: Clostridium tetani CECT4629; conditions: Reinforced Clostridium Medium, Coy Anaerobic Chamber, 18 h, 37 °C, three biological replicates
Gram-positive strains = type: cell-based
[3] = system: Bacillus cereus ATCC14579; conditions: ATCC14579, 18 h
[4] = system: Staphylococcus aureus LMG10147; conditions: LMG10147, 18 h
[5] = system: Enterococcus faecalis LMG16216 (VRE); conditions: LMG16216, 18 h
[6] = pH stability (remaining antimicrobial activity); conditions: pH 2, 4, 7 or 10 adjusted with HCl or NaOH; read-out antimicrobial activity on L. lactis MG1363 agar; three biological replicates
L. lactis MG1363 [7] = experiment: Time killing assay; type: cell-based, Lactococcus lactis; conditions: L. lactis MG1363, 5 × 10^5 CFU/mL, 10-fold the MIC, GM17, 30 °C, CFU counts, triplicate
Description: Time-killing assays were conducted according to the previously described protocol.[57] Briefly, an overnight culture of L. lactis MG1363 was diluted 50-fold in GM17 and incubated at 30 °C. The cells were grown for about 3 h to an OD600 of 0.5, and then the cell concentration was adjusted to 5 × 10^5 CFU/mL. […] Untreated cells were used as a control. At predetermined time points, 50 μL was taken from each sample, and undiluted and 10-fold serially diluted suspensions were plated on GM17 agar plates. After the overnight incubation at 30 °C, the colonies on the plates were counted and then calculated as the colony-forming units per milliliter. The experiment was carried out in triplicate.

[8] = system: Listeria monocytogenes LMG10470; conditions: LMG10470, 18 h
[9] = system: Clostridium perfringens CECT376; conditions: Reinforced Clostridium Medium, Coy Anaerobic Chamber, 18 h, 37 °C, three biological replicates
[10] = Thermal stability (remaining antimicrobial activity); type: physicochemical; conditions: 4 h at 95 °C; read-out antimicrobial activity on L. lactis MG1363 agar; three biological replicates
[11] = system: Staphylococcus aureus LMG15975 (MRSA); conditions: LMG15975, 18 h
[12] = system: Enterococcus faecium LMG16003 (VRE); conditions: LMG16003, 18 h
[13] = Spot-on-lawn-based lipid II binding (competition) assay; set-up: species or system Lactococcus lactis; conditions: spot-on-lawn on L. lactis MG1363 GM17 agar; estercin A 8 μg spotted adjacent to lipid II (300 μM, 3 μL); nisin positive, daptomycin negative control
Description: The binding of the peptides to pure lipid II ([…]) was tested by the spot-on-the- lawn assay. Here, nisin and daptomycin were used for comparison.[51]

L. lactis MG1363 [14] = experiment: Fluorescence microscopy assay (SYTO-9/PI) for membrane pore formation; type: cell-based, Lactococcus lactis; conditions: L. lactis MG1363, peptide at 2-fold MIC, SYTO-9 and 5 μM PI, 15 min room temperature
Description: An overnight culture of L. lactis MG1363 was added to the GM17 broth to a final concentration of 1% (v/v) and grown to an OD600 of 0.8. The culture was centrifuged at 6,000 rpm for 5 min and washed three times in the MHB medium. […] Simultaneously, 5 μM PI and SYTO 9 were added to the samples. After incubation at room temperature for 15 min, the samples were centrifuged, and the supernatant was removed. And the cells were washed three times with MHB. After that, the harvest cells were loaded on 1.5% agarose pads and analyzed by a DeltaVision Elite microscope (Applied Precision).

[15] = system: Lactococcus lactis MG1363; conditions: 18 h

Row | Compound | MIC (C. perfringens) [µg/mL] | MIC [1] [µg/mL] | MIC [2] [µg/mL] | Antimicrobial activity against selected Gram-positive strains (Gram-positive strains) | MIC [3] [µg/mL] | MIC [4] [µg/mL] | MIC [5] [µg/mL] | pH stability: activity retained after incubation [6] | Rate of killing (L. lactis MG1363 [7]) | MIC [8] [µg/mL] | MIC [9] [µg/mL] | Reduction of antimicrobial activity after 95 °C exposure [10] | MIC [11] [µg/mL] | MIC [12] [µg/mL] | Lipid II binding [13] | Membrane pore-forming ability (L. lactis MG1363 [14]) | MIC [15] [µg/mL]
1 | ruminococcin A | 75 |  |  |  |  |  |  |  |  |  |  |  |  |  |  |  | 
2 | C=C1NC(=O)[C@H](C(C)C)NC(=O)C2CSC[C@@H](C(=O)N[C@@H](CCCCN)C(=O)O)NC(=O)[C@H](CSC(C)C3NC(=O)[C@H](Cc4ccccc4)NC(=O)C(NC(=O)[C@@H](NC(=O)[C@@H](NC(=O)[C@@H](NC(=O)CNC(=O)CNC(=O)CN)C(C)C)[C@@H](C)CC)[C@@H](C)O)C(C)SC[C@H](NC(=O)[C@H](CCC(=O)O)NC(=O)[C@H](Cc4c[nH]cn4)NC3=O)C(=O)N[C@@H](Cc3ccc(O)cc3)C(=O)N[C@@H](Cc3ccc(O)cc3)C(=O)N[C@@H](CC(N)=O)C(=O)N2)NC(=O)CNC(=O)CNC(=O)[C@H](Cc2c[nH]c3ccccc23)NC(=O)[C@H](CO)NC(=O)[C@H](C)NC(=O)[C@@H]2CCCN2C1=O (some centres unmarked) [estercin A] |  | 32 (≈ 11.6 µM) | 4 (≈ 1.45 µM) | broad spectrum of activity | 8 (≈ 2.91 µM) | 16 (≈ 5.81 µM) | 64 (≈ 23.2 µM) | retained most of their activity | slower rate of killing | >64 | 1 (≈ 0.363 µM) | less than 30% | 4 (≈ 1.45 µM) | 64 (≈ 23.2 µM) | binds to lipid II | cannot form pores on the membrane of target cells | 4 (≈ 1.45 µM)

Reference: article PMC11877530, “Heterologous Expression and Characterization of Estercin A, a Class II Lanthipeptide Derived from Clostridium estertheticum CF016, with Antimicrobial Activity against Clinically Relevant Pathogens” (Journal of Natural Products, 2025)
